Assay results: patent publication US20130225529A1, “PHOSPHO-ESTER DERIVATIVES AND USES THEREOF” (priority 2012, published 2013)
Where two headings read alike, the source gives them in different places. Blank lines part the entries; values can stand above or below the molecule they belong to.

Tests used:
[1] = assay type: in vivo, mice; details: 55° C. hot plate, 30 min after single i.p. dose; 100 mg/kg, PI-PEG 1,600 mg/kg; control 1.91 ± 0.46
[2] = tested on: U87 cells; test: 24-h growth inhibition of U87 glioblastoma cells; assay type: cell-based; details: Homo sapiens, U-87 MG; U87, 24 h
Procedure: U87 cells were treated with sulindac and ibuprofen as well as with the compounds. U87 is a human primary glioblastoma cell line, formally known as U-87 MG. This cell line has epithelial morphology, and is one of the most frequently used glioblastoma cell lines.

[3] = tested on: A431 skin cancer cells; test: Cellular uptake in A431 cells (HPLC); details: 100 μM for 1 h
[4] = tested on: A549 human non-small lung cancer cells; test: Orthotopic A549 lung tumor model in nude mice; assay type: in vivo; details: 200 mg/kg once a week for 8 weeks
[5] = Pharmacokinetic study of phosphosulindac amide and sulindac, single oral dose; assay type: in vivo, mice; details: mouse, plasma, label = analyte
[6] = Pharmacokinetics after inhalational administration of PS; assay type: in vivo, mice; details: after 8 min inhalation, label = analyte
[7] = tested on: A549 cells; test: Cell proliferation by BrdU staining; assay type: cell-based, human; details: 60 μM (indomethacin equimolar)
[8] = tested on: SW480 cells; test: Cell cycle by PI staining; assay type: cell-based, human; details: 1×IC50 PTI; indomethacin at equimolar concentration; control 56.8
[9] = tested on: SW480 colon cancer cells; test: SW480 colon cancer xenografts, prevention protocol, PTI; assay type: in vivo, mice; details: oral gavage; PTI 10 mg/kg/d, indomethacin 2 mg/kg/d; end of study
[10] = tested on: PGE2 production; test: PGE2 production by A549 cells; assay type: cell-based, human
[11] = mouse, in vivo, ip
[12] = tested on: skin papillomas; test: DMBA/TPA-induced skin papillomas in FVB mice; assay type: in vivo
[13] = tested on: β-catenin signaling; test: β-catenin transcriptional activity (TOPflash) in HEK293T cells; assay type: cell-based; details: 5 μM each; control 1.23±0.11
[14] = 66 mg/kg, single oral dose of sulindac equimolar to PSA, read-out: AUC0-24 h, sulindac administration
[15] = BALB/c nude, mouse, inhaled or intranasal, plasma

SMILES: CCOP(=O)(OCC)OCCCCOC(=O)C(C)c1ccc(CC(C)C)cc1 (centres unmarked) [PI 132]
latency values (mean±SD) [1]: 8.53 ± 0.81 s | IC50 [2]: 98 µM | fold increase of cellular level over the other two compounds [3]: at least 300 fold | cellular content (cellular extract) ([3]; limit of detection 2.5 pmol): 750 pmol

IC50 [2]: ≥ 1000 µM
SMILES: CC(C)Cc1ccc(C(C)C(=O)O)cc1 (centres unmarked) [Ibuprofen, reference compound]
reduction based on lung tumor weight / lung weight [4]: 19% | reduction of lung cancer based on fluorescence [4]: 57%

AUC(0-t) [5, 14]: 385 µM·h | AUC [6, 15]: 49.5 µM·h | IC50 [2]: ≥ 1000 µM
SMILES: CC1=C(CC(=O)O)c2cc(F)ccc2/C1=C\c1ccc([S+](C)[O-])cc1 (centres unmarked) [Sulindac]

SMILES: CSc1ccc(/C=C2/C(C)=C(CC(=O)O)c3cc(F)ccc32)cc1 [Sulindac sulfide 146, sulindac sulfide]
AUC(0-t) [5, 14]: 691 µM·h | AUC(0-t) ([5]; single oral dose 100 mg/kg PSA, read-out: AUC0-24 h, PSA administration): 17.9 µM·h | AUC [6, 15]: 66.9 µM·h | Tmax ([6]; lung): 4 h | Tmax ([6]; plasma): 4 h

SMILES: CC1=C(CC(=O)O)c2cc(F)ccc2/C1=C\c1ccc(S(C)(=O)=O)cc1 [Sulindac sulfone 147, sulindac sulfone]
AUC(0-t) [5, 14]: 93.4 µM·h | Tmax ([6]; BALB/c nude, mouse, inhaled or intranasal, lung, read-out: Tmax): 8 h | AUC [6, 15]: 142 µM·h | Cmax [6, 15]: 10.4 µM | Tmax ([6]; BALB/c nude, mouse, inhaled or intranasal, plasma, read-out: Tmax): 8 h

AUC0-24 h (for PTI: PTI plus its metabolite) [11]: 500 µM·h | peak plasma level [11]: 127 µM | time of peak plasma level [11]: 1 h
SMILES: COc1ccc2c(c1)c(CC(=O)O)c(C)n2C(=O)c1ccc(Cl)cc1 [Indomethacin, indomethacin, reference compound]
decrease of proportion of BrdU positive cells [7]: 15% | proportion of cells in G0/G1 phase [8]: 57.7% | reduction of tumor growth [9]: no significant effect | PGE2 levels induced by the calcium ionophore A23187 [10]: prevented the increase in PGE2 levels

SMILES: NCCC[C@](N)(C(=O)O)C(F)F [DFMO, α-difluoromethylornithine, reference compound]
papilloma multiplicity, oral administration ([12]; oral): failed to reduce papilloma multiplicity | reduction of tumor burden (average tumor volume/mouse) ([12]; topical): ~90% | thickness of the epidermis ([12]; topical): partial effect | reduction of tumor number (papillomas/mouse) ([12]; topical application): merely stabilized disease progression | luciferase/renilla activity [13]: 1.18±0.01
